Test results as given in article PMC11768629, “Potential Interaction of Pinocembrin with Drug Transporters and Hepatic Drug-Metabolizing Enzymes” (Pharmaceuticals, 2025).
pIC50: −log10 of the molar value. Values joined by “and” are separate entries in the source; they are usually repeats but may differ in a detail not shown here. Equal values may be shown once. Read-outs that look alike come from different tables or passages of the source.

Assays:
[1] = biological target: T1, BCRP (Homo sapiens, UniProt Q9UNQ0); experiment: BCRP-mediated 3H-estrone sulfate transepithelial transport in Caco-2 cell monolayers; format: cell-based; conditions: pinocembrin, compared with vehicle control
T1 construct: Caco-2 cell monolayers, which express both P-gp and BCRP; host or cells: Caco-2
T1 sequence (Q9UNQ0 whole entry): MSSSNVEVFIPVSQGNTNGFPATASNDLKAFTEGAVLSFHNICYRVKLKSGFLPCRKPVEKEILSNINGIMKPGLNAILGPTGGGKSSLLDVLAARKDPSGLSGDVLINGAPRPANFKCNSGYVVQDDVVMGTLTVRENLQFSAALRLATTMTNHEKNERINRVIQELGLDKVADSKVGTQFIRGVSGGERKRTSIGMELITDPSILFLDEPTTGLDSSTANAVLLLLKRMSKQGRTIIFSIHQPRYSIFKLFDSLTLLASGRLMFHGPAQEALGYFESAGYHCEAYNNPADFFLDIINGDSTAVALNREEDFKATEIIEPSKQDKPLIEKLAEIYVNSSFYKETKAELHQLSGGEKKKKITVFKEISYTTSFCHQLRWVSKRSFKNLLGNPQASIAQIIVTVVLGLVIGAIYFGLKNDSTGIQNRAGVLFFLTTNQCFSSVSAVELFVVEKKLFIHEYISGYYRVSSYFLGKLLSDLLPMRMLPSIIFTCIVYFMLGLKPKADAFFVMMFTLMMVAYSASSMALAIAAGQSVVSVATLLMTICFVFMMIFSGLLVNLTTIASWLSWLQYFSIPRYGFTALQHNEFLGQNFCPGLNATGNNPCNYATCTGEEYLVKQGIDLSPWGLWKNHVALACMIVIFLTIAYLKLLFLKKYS
Protocol: The interactions of pinocembrin with P-gp and BCRP were determined by the measurement of P-gp-mediated ^3H-digoxin transport and BCRP-mediated ^3H-estrone sulfate transport in Caco-2 cell monolayers, which express both P-gp and BCRP [20].
P-gp- and BCRP-mediated transport were measured by the transepithelial transport of their substrates (^3H-digoxin for P-gp and ^3H-estrone sulfate for BCRP) in Caco-2 cell monolayers. […] Caco-2 cells were cultured on membrane inserts (Corning Inc., Corning, NY, USA) for 21 days. Cell monolayers showing transepithelial electrical resistance values > 600 Ω.cm^2 were included in the experiment. […] The basolateral side was replaced with a transport buffer. The sample from the basolateral side was transferred to vials containing a liquid scintillation cocktail to measure radioactivity by a β-counter (Packard BioScience, Wellesley, MA, USA).

[2] = test system: CYP2A6; parameters: method as in PMID 34069400, doi:10.5562/cca3652, PMID 35721953; conditions: cited from earlier work
[3] = biological target: T2, hOAT3 (Homo sapiens, UniProt Q8TCC7); experiment: Pinocembrin treatment followed by 3H-estrone sulfate accumulation in hOAT3-MDCK cells; format: cell-based; conditions: 1, 10 and 50 μM for 24 h, concentration-dependent, compared with vehicle
T2 construct: host or cells: MDCK
T2 sequence (Q8TCC7 1-542): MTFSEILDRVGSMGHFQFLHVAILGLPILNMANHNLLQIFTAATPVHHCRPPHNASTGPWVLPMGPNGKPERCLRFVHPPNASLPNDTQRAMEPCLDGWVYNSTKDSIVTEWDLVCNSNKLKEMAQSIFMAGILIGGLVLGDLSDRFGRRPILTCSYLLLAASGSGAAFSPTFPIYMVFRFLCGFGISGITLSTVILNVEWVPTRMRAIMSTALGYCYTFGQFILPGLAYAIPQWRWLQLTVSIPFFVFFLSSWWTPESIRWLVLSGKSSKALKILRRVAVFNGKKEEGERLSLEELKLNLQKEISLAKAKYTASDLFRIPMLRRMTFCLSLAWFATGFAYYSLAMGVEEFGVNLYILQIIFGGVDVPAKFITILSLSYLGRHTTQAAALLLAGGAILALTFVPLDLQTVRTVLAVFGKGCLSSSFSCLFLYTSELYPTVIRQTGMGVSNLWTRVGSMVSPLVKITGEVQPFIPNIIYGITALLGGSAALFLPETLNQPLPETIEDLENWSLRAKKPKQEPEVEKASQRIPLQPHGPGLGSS
Protocol: The hOAT1-MDCK cells and hOAT3-MDCK cells were treated with 1, 10, and 50 μM pinocembrin for 24 h, followed by a measurement of ^3H-PAH and ^3H-estrone sulfate cellular accumulation. […] The inhibitory effect of pinocembrin occurred in a concentration-dependent manner.
A cell monolayer comprising hOAT1-MDCK, hOAT3-MDCK, hOCT1-CHO-K1, hOCT2-CHO-K1, hMATE1-CHO-K1, hMATE2-CHO-K1, and mock cells were utilized for the uptake experiments. The cells were washed three times with a buffer containing (in mM) 140 NaCl, 5 KCl, 0.4 MgSO4, 0.5 MgCl2, 1 CaCl2, 0.3 Na2HPO4, 0.4 KH2PO4, 6 D-glucose, and 4 NaHCO3 at pH 7.4 and incubated at 37 °C for 15 min. After incubation, the hOAT1-MDCK and hOAT3-MDCK cells were incubated for 10 min with ^3H-PAH and ^3H-estrone sulfate, a substrate of hOAT1 and hOAT3, respectively. The hOCT1-CHO-K1 and hOCT2-CHO-K1 cells were incubated with ^3H-MPP^+, a substrate of OCT1 and OCT2, for five minutes. The functions of MATE1 and MATE2 were determined by incubating the hMATE1-CHO-K1 and hMATE2-CHO-K1 cells with a buffer containing ^3H-MPP^+, a substrate of MATE1 and MATE2, at pH 8.5 for five minutes. The cells were washed three times with an ice-cold buffer to stop the transport function. […] The samples were collected and transferred to vials containing a liquid scintillation cocktail to measure radioactivity by a β-counter (Packard BioScience, Wellesley, MA, USA). […]

[4] = biological target: T3, CYP2B6 (Homo sapiens, UniProt P20813); experiment: Cell-free CYP450 inhibition assay, CYP2B6; format: biochemical; conditions: cell-free fluorescent probe assay, BACULOSOMES
T3 construct: purchased Life Technologies
T3 sequence (P20813 whole entry): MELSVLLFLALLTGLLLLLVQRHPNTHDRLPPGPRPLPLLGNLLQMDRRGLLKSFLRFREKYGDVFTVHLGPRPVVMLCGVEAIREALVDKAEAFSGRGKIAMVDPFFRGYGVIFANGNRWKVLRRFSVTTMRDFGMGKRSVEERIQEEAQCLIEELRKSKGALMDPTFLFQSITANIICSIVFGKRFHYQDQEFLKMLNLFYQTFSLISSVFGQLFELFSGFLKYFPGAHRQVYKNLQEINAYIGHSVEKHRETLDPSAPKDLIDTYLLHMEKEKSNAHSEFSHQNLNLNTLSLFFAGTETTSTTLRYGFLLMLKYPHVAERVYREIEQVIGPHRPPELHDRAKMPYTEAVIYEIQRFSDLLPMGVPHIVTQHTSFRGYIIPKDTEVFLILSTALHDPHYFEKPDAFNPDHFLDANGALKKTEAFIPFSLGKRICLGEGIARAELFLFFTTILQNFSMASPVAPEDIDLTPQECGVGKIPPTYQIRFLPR
Protocol: (§1) To determine whether pinocembrin influences the catalytic activity of CYP450 enzymes, fluorescent probe reaction assays were performed using varying concentrations of pinocembrin. […] In addition, molecular docking was conducted to better understand the binding mode and interactions between pinocembrin and human CYP2C19.
(§2) The CYP450 inhibitory activity of pinocembrin was determined using a P450 screening kit (Life Technologies; Carlsbad, CA, USA). Varied concentrations of pinocembrin were prepared in methanol. […] The fluorescence intensities were monitored every minute for 60 min at room temperature. The percentage of inhibition was calculated according to the following equation: % Inhibition=(1−X−B/A−B)×100% where X is the fluorescence intensity observed in the presence of pinocembrin.

[5] = biological target: T4, hOCT1 (Homo sapiens, UniProt O15245); experiment: Cis-inhibition assay, 3H-MPP+ uptake in hOCT1-CHO-K1 cells; format: cell-based; conditions: pinocembrin
T4 construct: host or cells: CHO-K1
T4 sequence (O15245 whole entry): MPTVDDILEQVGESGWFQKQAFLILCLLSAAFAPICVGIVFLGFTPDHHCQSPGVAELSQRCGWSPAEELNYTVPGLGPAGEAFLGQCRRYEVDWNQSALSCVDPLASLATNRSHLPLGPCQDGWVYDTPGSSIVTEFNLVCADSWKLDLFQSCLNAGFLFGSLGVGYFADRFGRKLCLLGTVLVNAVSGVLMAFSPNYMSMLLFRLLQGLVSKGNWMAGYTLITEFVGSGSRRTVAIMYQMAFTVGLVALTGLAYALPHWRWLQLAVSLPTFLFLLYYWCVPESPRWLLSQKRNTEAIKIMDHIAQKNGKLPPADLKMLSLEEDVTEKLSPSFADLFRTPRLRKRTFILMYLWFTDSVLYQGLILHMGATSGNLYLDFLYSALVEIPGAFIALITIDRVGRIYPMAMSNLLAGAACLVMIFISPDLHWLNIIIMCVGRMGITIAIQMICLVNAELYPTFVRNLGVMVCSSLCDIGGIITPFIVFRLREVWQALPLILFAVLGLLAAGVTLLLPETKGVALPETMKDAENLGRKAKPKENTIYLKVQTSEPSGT
Protocol: (§3) Next, the effects of pinocembrin on the transport function of renal drug transporters, including hOAT1, hOAT3, hOCT1, hOCT2, hMATE1, and hMATE2, were determined.
(§4) A cell monolayer comprising hOAT1-MDCK, hOAT3-MDCK, hOCT1-CHO-K1, hOCT2-CHO-K1, hMATE1-CHO-K1, hMATE2-CHO-K1, and mock cells were utilized for the uptake experiments. The cells were washed three times with a buffer containing (in mM) 140 NaCl, 5 KCl, 0.4 MgSO4, 0.5 MgCl2, 1 CaCl2, 0.3 Na2HPO4, 0.4 KH2PO4, 6 D-glucose, and 4 NaHCO3 at pH 7.4 and incubated at 37 °C for 15 min. After incubation, the hOAT1-MDCK and hOAT3-MDCK cells were incubated for 10 min with ^3H-PAH and ^3H-estrone sulfate, a substrate of hOAT1 and hOAT3, respectively. The hOCT1-CHO-K1 and hOCT2-CHO-K1 cells were incubated with ^3H-MPP^+, a substrate of OCT1 and OCT2, for five minutes. The functions of MATE1 and MATE2 were determined by incubating the hMATE1-CHO-K1 and hMATE2-CHO-K1 cells with a buffer containing ^3H-MPP^+, a substrate of MATE1 and MATE2, at pH 8.5 for five minutes. The cells were washed three times with an ice-cold buffer to stop the transport function. The cells were lyzed with 0.4 N NaOH for at least four hours. The samples were collected and transferred to vials containing a liquid scintillation cocktail to measure radioactivity by a β-counter (Packard BioScience, Wellesley, MA, USA). […]

[6] = biological target: T5, hMATE1 (Homo sapiens, UniProt Q96FL8); experiment: Cis-inhibition assay, 3H-MPP+ uptake in hMATE1-CHO-K1 cells; format: cell-based; conditions: pinocembrin, pH 8.5
T5 construct: host or cells: CHO-K1
T5 sequence (Q96FL8 whole entry): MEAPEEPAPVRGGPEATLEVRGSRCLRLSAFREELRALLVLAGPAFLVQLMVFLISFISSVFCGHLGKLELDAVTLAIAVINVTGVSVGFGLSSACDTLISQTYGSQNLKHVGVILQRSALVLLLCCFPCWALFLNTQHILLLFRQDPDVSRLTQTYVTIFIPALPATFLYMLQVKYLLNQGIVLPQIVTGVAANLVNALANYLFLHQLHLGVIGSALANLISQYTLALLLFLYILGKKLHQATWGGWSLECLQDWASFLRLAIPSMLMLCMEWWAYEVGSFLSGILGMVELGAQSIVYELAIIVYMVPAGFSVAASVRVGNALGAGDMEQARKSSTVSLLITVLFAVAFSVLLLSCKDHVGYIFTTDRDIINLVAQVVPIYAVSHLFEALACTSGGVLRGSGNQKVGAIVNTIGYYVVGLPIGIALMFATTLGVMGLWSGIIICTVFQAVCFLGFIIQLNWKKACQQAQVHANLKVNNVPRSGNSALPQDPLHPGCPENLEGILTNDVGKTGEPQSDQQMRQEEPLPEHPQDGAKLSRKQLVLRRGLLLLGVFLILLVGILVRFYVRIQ
Protocol: as §3, §4

[7] = test system: CYP3A4; conditions: cited from earlier work
[8] = biological target: T6, CYP2C9 (Homo sapiens, UniProt P11712); experiment: Cell-free CYP450 inhibition assay, CYP2C9; format: biochemical; conditions: cell-free fluorescent probe assay, BACULOSOMES
T6 construct: purchased Life Technologies
T6 sequence (P11712 whole entry): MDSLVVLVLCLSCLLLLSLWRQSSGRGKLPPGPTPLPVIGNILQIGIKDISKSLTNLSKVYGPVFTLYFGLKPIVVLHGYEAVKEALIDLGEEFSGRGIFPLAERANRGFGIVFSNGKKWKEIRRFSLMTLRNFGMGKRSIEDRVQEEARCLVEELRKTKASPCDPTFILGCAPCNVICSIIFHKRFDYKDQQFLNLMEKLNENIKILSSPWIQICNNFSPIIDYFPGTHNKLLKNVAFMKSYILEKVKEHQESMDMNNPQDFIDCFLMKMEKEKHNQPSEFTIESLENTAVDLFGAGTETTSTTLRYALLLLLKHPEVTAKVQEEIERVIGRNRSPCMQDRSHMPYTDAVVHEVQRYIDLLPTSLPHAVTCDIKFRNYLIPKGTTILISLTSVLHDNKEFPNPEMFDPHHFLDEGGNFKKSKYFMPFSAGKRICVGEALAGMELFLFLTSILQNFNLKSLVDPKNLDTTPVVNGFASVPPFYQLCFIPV
Protocol: as §1, §2

[9] = parameters: method as in PMID 25814318; conditions: cited from earlier work
[10] = biological target: T2, hOAT3; experiment: Cis-inhibition assay, 3H-estrone sulfate uptake in hOAT3-MDCK cells; format: cell-based; conditions: 10 µM pinocembrin, compared with vehicle control
Protocol: as §3, §4

[11] = 80 mg intravenous injection, human subjects

transport of 3H-estrone sulfate from the apical to basolateral side [1]: did not affect
3H-estrone sulfate accumulation after pinocembrin treatment [3]: significantly decreased
pIC50 [4]: 4.36
hOCT1-mediated uptake of 3H-MPP+ [5]: did not alter
hMATE1-mediated uptake of 3H-MPP+ [6]: did not alter
pIC50 [8]: 3.46
3H-estrone sulfate cellular accumulation [10]: significantly decreased
SMILES: O=C1C[C@@H](c2ccccc2)Oc2cc(O)cc(O)c21 [pinocembrin]
effect on the activity of CYP2A6 [2]: does not affect
effect on the activity of CYP3A4 [7]: inhibits the activities
effect on the activity of CYP3A4 ([7]; concentrations of 1–5 µM): shows an inhibitory effect
maximal plasma concentration ([9]; 40 mg intravenous injection): 0.6 µg/mL and 2.3 µM
maximal plasma concentration ([9]; 80 mg intravenous injection): 4.7 µM
T1/2 [9, 11]: 55 min
maximal plasma concentration (Cmax) [9, 11]: 1.22 µg/mL
observed plasma concentration ([9]; phase I clinical trials): 3 to 10 µM
